Test results as given in patent US20230041743A1, “1,8-NAPHTHYRIDIN-2-ONE COMPOUNDS FOR THE TREATMENT OF AUTOIMMUNE DISEASE” (Hoffmann-La Roche Inc., priority 2019, published 2023).

Target: T1, hERG channel (Homo sapiens, UniProt Q12809)
T1 construct: expressed in transfected cells; host or cells: CHO (Chinese hamster ovary), CHOhERG
Experiment: hERG channel inhibition assay (patch-clamp, CHOhERG cells)
Assay type: cell-based
Settings: whole-cell patch-clamp; for IC20: human, CHO cells stably expressing hERG (CHOhERG)
Experimental: hERG Channel Inhibition Assay
The hERG K^+ channels were cloned in humans and stably expressed in a CHO (Chinese hamster ovary) cell line. CHOhERG cells were used for patch-clamp (voltage-clamp, whole-cell) experiments. Cells were stimulated by a voltage pattern to activate hERG channels and conduct IKhERG Currents (rapid delayed outward rectifier potassium current of the hERG channel). After the cells were stabilized for a few minutes, the amplitude and kinetics of IKhERG were recorded at a stimulation frequency of 0.1 Hz (6 bpm). Thereafter, the test compound was added to the preparation at increasing concentrations. For each concentration, an attempt was made to reach a steady-state effect, usually, this was achieved within 3-10 min at which time the next highest concentration was applied. The amplitude and kinetics of IKhERG are recorded in each concentration of the drug which were compared to the control values (taken as 100%). (references: Redfern W S, Carlsson L, Davis A S, Lynch W G, MacKenzie I, Palethorpe S, Siegl P K, Strang I, Sullivan A T, Wallis R, Camm A J, Hammond T G. 2003; Relationships between preclinical cardiac electrophysiology, clinical QT interval prolongation and torsade de pointes for a broad range of drugs: evidence for a provisional safety margin in drug development. Cardiovasc. Res. 58:32-45, Sanguinetti M C, Tristani-Firouzi M. 2006; hERG potassium channels and cardiac arrhythmia. Nature 440:463-469, Webster R, Leishman D, Walker D. 2002; Towards a drug concentration effect relationship for QT prolongation and torsades de pointes. Curr. Opin. Drug Discov. Devel. 5:116-26).

T1 sequence (Q12809 whole entry): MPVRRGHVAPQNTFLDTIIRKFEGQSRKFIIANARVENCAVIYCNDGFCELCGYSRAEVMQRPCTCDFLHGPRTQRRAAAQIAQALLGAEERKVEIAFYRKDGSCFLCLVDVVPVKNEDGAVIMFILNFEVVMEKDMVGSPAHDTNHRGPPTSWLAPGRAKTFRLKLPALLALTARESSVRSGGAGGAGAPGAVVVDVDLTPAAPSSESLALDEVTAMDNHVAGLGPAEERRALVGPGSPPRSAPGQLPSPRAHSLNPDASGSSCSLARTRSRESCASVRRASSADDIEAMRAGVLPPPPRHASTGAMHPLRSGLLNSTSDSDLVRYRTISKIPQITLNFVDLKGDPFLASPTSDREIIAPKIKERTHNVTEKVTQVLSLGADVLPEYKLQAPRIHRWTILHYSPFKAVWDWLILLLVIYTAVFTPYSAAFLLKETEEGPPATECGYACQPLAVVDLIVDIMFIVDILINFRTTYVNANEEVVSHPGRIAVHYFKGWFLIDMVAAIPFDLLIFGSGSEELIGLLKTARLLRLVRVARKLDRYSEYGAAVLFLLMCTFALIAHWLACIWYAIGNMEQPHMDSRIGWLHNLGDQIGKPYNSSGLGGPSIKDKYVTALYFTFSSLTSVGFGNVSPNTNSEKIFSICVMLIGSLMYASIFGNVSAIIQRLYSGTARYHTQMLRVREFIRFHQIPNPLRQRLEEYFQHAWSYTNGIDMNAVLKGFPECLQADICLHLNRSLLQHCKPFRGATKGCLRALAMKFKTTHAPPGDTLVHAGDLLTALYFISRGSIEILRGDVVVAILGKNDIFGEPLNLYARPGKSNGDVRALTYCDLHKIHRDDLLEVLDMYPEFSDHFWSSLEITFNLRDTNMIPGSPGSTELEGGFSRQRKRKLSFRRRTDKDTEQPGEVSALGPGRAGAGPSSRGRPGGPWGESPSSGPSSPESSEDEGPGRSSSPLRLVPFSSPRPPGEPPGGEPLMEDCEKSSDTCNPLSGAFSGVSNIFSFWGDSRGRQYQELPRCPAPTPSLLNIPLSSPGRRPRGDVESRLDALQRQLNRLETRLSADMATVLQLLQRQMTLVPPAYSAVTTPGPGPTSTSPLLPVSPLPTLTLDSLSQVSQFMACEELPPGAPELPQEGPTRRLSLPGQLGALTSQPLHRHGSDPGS

SMILES	IC20 [µM]	IC50 [µM]
C[C@@H]1CN(c2cc(=O)n(C)c3ncccc23)C[C@@H]2c3ccc(N4CC5(CN(C)C5)C4)cc3CN12 [Example 2, 4-[(4R,10bS)-4-methyl-8-(6-methyl-2,6-diazaspiro[3.3]heptan-2-yl)-3,4,6,10b-tetrahydro-1H-pyrazino[2,1-a]isoindol-2-yl]-1-methyl-1,8-naphthyridin-2-one]	> 10	> 20
CO[C@@H]1CN(c2ccc3c(c2)CN2[C@H](C)CN(c4cc(=O)n(C)c5ncccc45)C[C@H]32)C[C@H]1N [Example 5, 4-[(4R,10bS)-8-[(3R,4R)-3-amino-4-methoxy-pyrrolidin-1-yl]-4-methyl-3,4,6,10b-tetrahydro-1H-pyrazino[2,1-a]isoindol-2-yl]-1-methyl-1,8-naphthyridin-2-one]	> 10	> 20
C[C@@H]1CN(c2cc(=O)n(C)c3ncccc23)C[C@@H]2c3ccc(N4CCN[C@@H](C)C4)cc3CN12 [Example 13, 4-[(4R,10bS)-4-methyl-8-[(3S)-3-methylpiperazin-1-yl]-3,4,6,10b-tetrahydro-1H-pyrazino[2,1-a]isoindol-2-yl]-1-methyl-1,8-naphthyridin-2-one]	7.2	> 20
C[C@@H]1CN(c2ccc3c(c2)CN2[C@H](C)CN(c4cc(=O)n(C)c5ncccc45)C[C@H]32)CCN1 [Example 14, 4-[(4R,10bS)-4-methyl-8-[(3R)-3-methylpiperazin-1-yl]-3,4,6,10b-tetrahydro-1H-pyrazino[2,1-a]isoindol-2-yl]-1-methyl-1,8-naphthyridin-2-one]	> 10	> 20
C[C@@H]1CN(c2cc(=O)n(C)c3ncccc23)C[C@@H]2c3ccc(N4CCC[C@](C)(N)C4)cc3CN12 [Example 15, 4-[(4R,10bS)-8-[(3S)-3-amino-3-methyl-1-piperidyl]-4-methyl-3,4,6,10b-tetrahydro-1H-pyrazino[2,1-a]isoindol-2-yl]-1-methyl-1,8-naphthyridin-2-one]	> 10	> 20
C[C@@H]1CN(c2cc(=O)n(C)c3ncccc23)C[C@@H]2c3ccc(N4CCC(C)(N)CC4)cc3CN12 [Example 18, 4-[(4R,10bS)-8-(4-amino-4-methyl-1-piperidyl)-4-methyl-3,4,6,10b-tetrahydro-1H-pyrazino[2,1-a]isoindol-2-yl]-1-methyl-1,8-naphthyridin-2-one]	> 10	> 20
C[C@@H]1CN(c2cc(=O)n(C)c3ncccc23)C[C@@H]2c3ccc(N4C[C@@H]5C[C@H]4CN5)cc3CN12 [Example 19, 4-[(4R,10bS)-8-[(1S,4S)-2,5-diazabicyclo[2.2.1]heptan-2-yl]-4-methyl-3,4,6,10b-tetrahydro-1H-pyrazino[2,1-a]isoindol-2-yl]-1-methyl-1,8-naphthyridin-2-one]	> 10	> 20
C[C@@H]1CN(c2cc(=O)n(C)c3ncccc23)C[C@@H]2c3ccc(N4CCOC[C@H](N)C4)cc3CN12 [Example 22, 4-[(4R,10bS)-8-[(6R)-6-amino-1,4-oxazepan-4-yl]-4-methyl-3,4,6,10b-tetrahydro-1H-pyrazino[2,1-a]isoindol-2-yl]-1-methyl-1,8-naphthyridin-2-one]	> 10	> 20
C[C@@H]1CN(c2cc(=O)n(C)c3ncccc23)C[C@@H]2c3ccc(C4CCNCC4)cc3CN12 [Example 24, 4-[(4R,10bS)-4-methyl-8-(4-piperidyl)-3,4,6,10b-tetrahydro-1H-pyrazino[2,1-a]isoindol-2-yl]-1-methyl-1,8-naphthyridin-2-one]	> 10	> 20
